Experimental data published in patent publication US20070134319A1, “Pharmaceutical formulations of bisphosphonates” (priority 2003, published 2007).

Description: The solubility of zoledronic acid in [sequence] 44/14 and [sequence]

O=P(O)(O)C(O)(Cn1ccnc1)P(=O)(O)O [zoledronic acid, 1-hydroxy-2-(imidazol-1-yl)ethane-1,1-diphosphonic acid]
Zoledronic acid solubility in all the excipients (liquid lipidic media) (assessed visually): < 0.2 mg/g of excipient | Solubility of zoledronic acid in VITAMIN E-TPGS (at 40° C.): less than 0.22 mg/g | Solubility of zoledronic acid in GELUCIRE 50/13 (at 60° C.): less than 1 mg/g | Solubility in pH 4.5 acetate buffer (pH 4.5): readily soluble | Precipitation upon addition of flush (pH 4.5 acetate buffer solution, tap water (final pH 3.8) or citric acid (final pH~2.2) flush): does not precipitate out
